The results in this text go back to patent US7312224B2, “Pyrimidine derivatives” (Merck Patent GmbH, priority 2001, dated 2007).

The target of series [1] is cGMP phosphodiesterase (PDE V) (Homo sapiens, UniProt O76074). Description: Affinity to PDE V (IC50, inhibition of enzyme activity). The series is classed as biochemical. The settings on record: concentration of the inhibitor needed to achieve 50% inhibition of the enzyme activity. How it is done: The biological activity of the compounds of the formula I can be determined by methods as described, for example, in WO 93/06104.
The affinity of the compounds according to the invention for cGMP and cAMP phosphodiesterase is determined by measuring their IC50 values (concentration of the inhibitor needed to achieve 50% inhibition of the enzyme activity).
The determinations can be carried out using enzymes isolated by known methods (for example W. J. Thompson et al., Biochem. 1971, 10, 311). The experiments can be carried out using a modified batch method of W. J. Thompson and M. M. Appleman (Biochem. 1979, 18 5228).

Where a name gives a salt, the structure may show the parent alone. A value given as a limit tells only on which side of the number the result lay.

Turning to `COc1ccc(CNc2nc(-c3ccc(C(=O)O)cc3)nc3c2c2c(n3C(C)c3ccccc3)CCCC2)cc1Cl` (stereo not shown) (as salt: potassium) [Example 1, 4-[4-(3-chloro-4-methoxybenzylamino)-9-(1-phenylethyl)-6,7,8,9-tetrahydro-5H-1,3,9-triazafluoren-2-yl]benzoic acid], the melting point was 179 °C. On the same count and under the same terms, with `O=C(O)c1ccc(-c2nc(NCc3ccc4c(c3)OCO4)c3c4c(oc3n2)CCCC4)cc1` (as salt: salt) [Example 2, 4-[4-(3,4-methylenedioxybenzylamino)-5,6,7,8-tetrahydrobenzo[4,5]furo[2,3-d]pyrimidin-2-yl]benzoic acid] the figure was 205 °C; with `COc1ccc(CNc2nc(CCCC(=O)O)nc3oc4c(c23)CCCC4)cc1Cl` (as salt: salt) [Example 3, 4-[4-(3-chloro-4-methoxybenzylamino)-5,6,7,8-tetrahydrobenzo[4,5]furo[2,3-d]pyrimidin-2-yl]butyric acid], 205 °C; with `CCn1c2ccccc2c2c(NCc3ccc4c(c3)OCO4)nc(-c3ccc(C(=O)O)cc3)nc21` (as salt: sodium) [Example 7, 4-[4-(3,4-methylenedioxybenzylamino)-9-ethyl-9H-1,3,9-triazafluoren-2-yl]benzoic acid], > 250 °C. Turning to `COc1ccc(CNc2nc(-c3ccc(C(=O)O)cc3)nc3c2c2ccccc2n3C)cc1Cl` (as salt: sodium) [Example 8, 4-[4-(3-chloro-4-methoxybenzylamino)-9-methyl-9H-1,3,9-triazafluoren-2-yl]benzoic acid], the melting point was > 250 °C. In series [1], `COc1ccc(CNc2nc(-c3ccc(C(=O)O)cc3)nc3c2c2c(n3C(C)c3ccccc3)CCCC2)cc1Cl` (stereo not shown) [Example 1, 4-[4-(3-chloro-4-methoxybenzylamino)-9-(1-phenylethyl)-6,7,8,9-tetrahydro-5H-1,3,9-triazafluoren-2-yl]benzoic acid] displayed an IC50 of 300 nM.

The compound `COc1ccc(CNc2nc(CN3CCC(C(=O)O)CC3)nc3oc4c(c23)CCCC4)cc1Cl` [Example 4, 1-[4-(3-chloro-4-methoxybenzylamino)-5,6,7,8-tetrahydrobenzo[4,5]furo[2,3-d]pyrimidin-2-ylmethyl]piperidine-4-carboxylic acid] yielded a melting point of 233 to 235 °C.
